# Tests used:
# MRL/lpr mice [1] = experiment: Survival / mortality, MRL/lpr mice (Example 1); conditions: for EOS survival, true EOS mouse percentage from starting population: vehicle 92
# Experimental: Six week old lupus-prone, female, MRL/lpr (Jackson Labs, #000485) and non-lupus prone control MRL/MpJ (Jackson Labs, #000486) mice are obtained from Jackson Laboratories (Bar Harbor, Me.) at 6-weeks of age. All mice are maintained on a 24 hour light/dark cycle, with food and water available ad libitum. All experimental animal procedures are approved by and in accordance to the regulations of the Institutional Animal Care and Use Committee (IACUC) of Cephalon, Inc; approved IACUC protocol #03-040 and #03-03-041.
# Due to this impaired tolerance mechanism, a percentage of all T and B cells that enter the periphery have a high likelihood of responding to self protein/tissues and thus initiate autoimmunity early in life. The MRL/lpr model mice develop several chronic inflammatory disease-like symptoms that are characteristic of early and late lupus including the generation of anti-nuclear antibodies, arthritis, dermatological manifestations, immunocomplex-mediated glomerulonephritis leading to proteinuria and eventual death. Lesser characterized phenomenon are CNS and cardiac manifestations, both of which are more common in humans. […] Mortality is higher in the females and occurs around 25 weeks of age, renal disease includes glomerulonephritis, glomerular infiltrates, sclerosis and vasculitis. Both splenomegaly and lymphomegaly associated with dermatitis can also be observed.
# MRL/lpr mice are first randomized, initial bleeds collected, and body weights recorded for baseline measurements (FIG. 1). All mice are individually ear tagged and are monitored throughout the entire experiment (e.g., “Group#-Cage letter-Mouse#”, so “3B5”=Group 3 (G3), cage B, mouse #5). Mice are age-matched and treatment started at 6-8 weeks of age. Cheek bleeds and urine collection continues weekly throughout the experiment. Mice are individually tracked for several parameters including cytokine and ANA levels, proteinuria, body mass, lymphomegaly, general health, and mortality. All parameters are evaluated bi-monthly except mortality which is monitored daily. All groups consist of a minimum of at least 10-12 mice per group. Ex vivo experiments include flow cytometry analyses for plasma cells, serum complement C3 and ANA levels; urine protein and leukocytes, serum cytokine profiling, renal histo pathology, and determination of compound levels (pharmacokinetics (PK)) in the spleen, kidney and plasma. Mice are tracked on an individual basis. For all data, mice are grouped into populations and data graphed as mean±SEM. End-stage readouts are analyzed as described in the MATERIALS AND METHODS section (above) and in FIG. 1.
# Vehicle alone is provided orally twice weekly (p.o.). Both proteasome inhibitors are suspended in the vehicle solution. Bi-monthly bleeds and urine are collected and frozen at […] until assayed. End analyses include kidney histology, splenocyte B-cell Elispots, flow cytometry for B and T cell populations, PD markers, serum cytokines, antibody and complement levels. In addition, urine proteinuria is determined for all animals.
# In group two (G2), COMPOUND A was administered at a dose of 3 mg/kg iv twice weekly. In group three (G3), COMPOUND A was administered at a dose of 10 mg/kg p.o. twice weekly. […] In the new group five (G5), bortezomib was administered at a dose of 0.3 mg/kg iv twice weekly. Dexamethasone was administered at a dose of 1.5 mg/kg/2d (M, W, F) ip. Vehicle was 3% DMSO/10% Solutol/87% PBS. In those instances in which mice could not be injected via the iv route, agents were administered ip as noted in Table 1.
# MRL/lpr mice [2] = experiment: Antinuclear antibody (ANA) ELISA (anti-chromatin, anti-Smith Ag, anti-dsDNA IgG), serum of MRL/lpr mice; assay type: in vivo, mouse
# Text: For all ANA ELISA assays, values below the limit of detection set by the lowest point along the standard or set by the manufacturer are considered out of range and are not estimated, but assumed the lowest point along the standard curve for that particular assay.
# NZM mice [3] = experiment: Survival, NZM lupus nephritis model, ip dosing (Example 2); assay type: in vivo, mouse
# NZM mice [4] = experiment: Body weight progression, NZM mice (Example 2); assay type: in vivo, mouse
# NZM mice [5] = experiment: Antinuclear antibody (ANA) ELISA (anti-chromatin, anti-Smith Ag, anti-dsDNA), serum of NZM mice (Example 2); assay type: in vivo, mouse
# NZM mice [6] = experiment: Serum C3 complement ELISA, NZM mice (Example 2)
structure (smiles),measurement,setting,value
"CC(C)C[C@H](NC(=O)[C@H](Cc1ccccc1)NC(=O)c1cnccn1)B(O)O [bortezomib, reference compound]",decrease in survival over that of vehicle at EOS,MRL/lpr mice [1]; 0.3 mg/kg iv twice weekly,19%
same,decrease in survival over that of vehicle at EOS,MRL/lpr mice [1]; 0.5 mg/kg iv once weekly,2%
same,"EOS survival, true EOS mouse percentage from starting population","MRL/lpr mice [1]; G4: 0.5 mg/kg iv, 1× wk",90%
same,"EOS survival, true EOS mouse percentage from starting population","MRL/lpr mice [1]; G5: 0.3 mg/kg iv, 2× wk",73%
same,tolerability of initial dose,MRL/lpr mice [1]; initial G4 dose 0.5 mg/kg iv twice weekly,animal mortality
same,"ANA AUC Smith Ag, percent change vs vehicle","MRL/lpr mice [2]; G4: 0.5 mg/kg iv, 1× wk",−84%
same,"ANA AUC chromatin, percent change vs vehicle","MRL/lpr mice [2]; G4: 0.5 mg/kg iv, 1× wk",−82%
same,"ANA AUC dsDNA, percent change vs vehicle","MRL/lpr mice [2]; G4: 0.5 mg/kg iv, 1× wk",−88%
same,"ANA AUC Smith Ag, percent change vs vehicle","MRL/lpr mice [2]; G5: 0.3 mg/kg iv, 2× wk",−58%
same,"ANA AUC chromatin, percent change vs vehicle","MRL/lpr mice [2]; G5: 0.3 mg/kg iv, 2× wk",−58%
same,"ANA AUC dsDNA, percent change vs vehicle","MRL/lpr mice [2]; G5: 0.3 mg/kg iv, 2× wk",−76%
same,anti-Smith Ag IgG ANA level decrease vs vehicle at EOS,MRL/lpr mice [2]; Group 4,74%
same,anti-dsDNA IgG ANA decrease vs vehicle,MRL/lpr mice [2]; Group 4 (iv),82%
same,anti-dsDNA IgG ANA decrease vs vehicle,MRL/lpr mice [2]; Group 5 (iv),58%
same,anti-chromatin IgG level decrease vs vehicle,MRL/lpr mice [2]; weekly bortezomib dose,64%
same,"EOS survival, percent live mice from original number","NZM mice [3]; G3 0.3 mg/kg ip, 1× wk",58%
same,"EOS survival, percent live mice from original number","NZM mice [3]; G4 0.3 mg/kg ip, 2× wk",75%
same,mice still alive at day 56,NZM mice [3]; both treatment groups of the substance,75%
same,"Body mass AUC, percent change vs vehicle","NZM mice [4]; G3 0.3 mg/kg ip, 1× wk",+13%
same,"Body mass AUC, percent change vs vehicle","NZM mice [4]; G4 0.3 mg/kg ip, 2× wk",+11%
same,"ANA Smith Ag AUC, percent change vs vehicle","NZM mice [5]; G3 0.3 mg/kg ip, 1× wk",−22%
same,"ANA chromatin AUC, percent change vs vehicle","NZM mice [5]; G3 0.3 mg/kg ip, 1× wk",113%
same,"ANA dsDNA AUC, percent change vs vehicle","NZM mice [5]; G3 0.3 mg/kg ip, 1× wk",95%
same,"ANA Smith Ag AUC, percent change vs vehicle","NZM mice [5]; G4 0.3 mg/kg ip, 2× wk",−53%
same,"ANA chromatin AUC, percent change vs vehicle","NZM mice [5]; G4 0.3 mg/kg ip, 2× wk",−22%
same,"ANA dsDNA AUC, percent change vs vehicle","NZM mice [5]; G4 0.3 mg/kg ip, 2× wk",−2%
same,"reduction in anti-chromatin Ab relative to vehicle, significance","NZM mice [5]; bortezomib, Dex or CTX treatment groups",none of which was significant
same,serum anti-dsDNA Ab increase vs vehicle,NZM mice [5]; once weekly bortezomib,95%
same,serum anti-Smith Ag Ab decrease vs vehicle,NZM mice [5]; once weekly bortezomib (0.3 mg/kg ip),22%
same,serum anti-dsDNA Ab decrease vs vehicle,NZM mice [5]; twice weekly bortezomib,2%
same,serum anti-chromatin Ab decrease vs vehicle,NZM mice [5]; twice weekly bortezomib (0.3 mg/kg ip),22%
same,"Serum C3 complement AUC, percent change vs vehicle","NZM mice [6]; G3 0.3 mg/kg ip, 1× wk",8%
same,"Serum C3 complement AUC, percent change vs vehicle","NZM mice [6]; G4 0.3 mg/kg ip, 2× wk",−11%

# — patent US9340559B2, “Proteasome inhibitor delanzomib for use in the treatment of lupus” (Cephalon, Inc., priority 2011, dated 2016)
